According to article PMC11235159, “Targeting a microbiota Wolbachian aminoacyl-tRNA synthetase to block its pathogenic host” (Science Advances, 2024):
pEC50, pIC50, pKd: −log10 of the molar value. Where two headings read alike, the source gives them in different places.

Assays:
Wolbachia LeuRS = Wolbachia LeuRS (Wolbachia sp. subsp. Brugia malayi, UniProt Q5GS31); conditions: ITC; for -T∆S / ∆G / ∆H: in the presence of AMP; for binding to Wolbachia LeuRS (in words): in the absence of AMP
From the text: We designed constructs of the Wolbachia LeuRS editing domain (fig. S1), which bear the putative drug-binding pocket, for expression and purification of recombinant proteins. Two constructs gave soluble and well-behaving proteins that were used for biophysical and structural studies: a construct encoding for residues 219 to 418, herein named Wolbachia LeuRS; and another construct named Wolbachia LeuRS D1, for which part of an insertion specific to Wolbachia LeuRS (herein denoted as i1) and predicted to be highly disordered was partially deleted (354 to 377) (fig. S1). […] To quantitatively assess the affinity of these compounds to Wolbachia LeuRS, isothermal titration calorimetry (ITC) experiments were carried out.
ITC measurements were performed on a MicroCal iTC200 (GE Healthcare, PA) at 25°C. Wolbachia LeuRS samples were previously dialyzed into the ITC buffer 50 mM Hepes-KOH, pH 7.5, 30 mM KCl, 30 mM MgCl2, and 5 mM β-mercaptoethanol and adjusted to a final concentration of 70 μM. […] A typical ITC experiment consisted of 26 injections of 1.5 μl every 180 s at a stirring speed of 750 rpm. The raw data were processed using MicroCal PEAQ-ITC (v. 1.0.0.1259, Malvern) and Microcal Origin for ITC (v. 7.0).
Thermodynamic parameters were calculated from fitting the binding isotherms to a one-site binding site and
independent model. Experiments were done at least in duplicates.
All the experiments were performed in the presence of AMP, which acts as a surrogate of ATP or tRNALeu
terminal adenosine (Ade76).

[1] = biological target: T1, Wolbachia LeuRS (full-length) (Wolbachia sp. subsp. Brugia malayi, UniProt Q5GS31); assay: Reactivation rate (half-life of inhibition) of Wolbachia LeuRS after dilution of inhibitor complex; assay type: biochemical; conditions: time for LeuRS to recover 50% of its activity after 200-fold dilution
T1 sequence (Q5GS31 whole entry): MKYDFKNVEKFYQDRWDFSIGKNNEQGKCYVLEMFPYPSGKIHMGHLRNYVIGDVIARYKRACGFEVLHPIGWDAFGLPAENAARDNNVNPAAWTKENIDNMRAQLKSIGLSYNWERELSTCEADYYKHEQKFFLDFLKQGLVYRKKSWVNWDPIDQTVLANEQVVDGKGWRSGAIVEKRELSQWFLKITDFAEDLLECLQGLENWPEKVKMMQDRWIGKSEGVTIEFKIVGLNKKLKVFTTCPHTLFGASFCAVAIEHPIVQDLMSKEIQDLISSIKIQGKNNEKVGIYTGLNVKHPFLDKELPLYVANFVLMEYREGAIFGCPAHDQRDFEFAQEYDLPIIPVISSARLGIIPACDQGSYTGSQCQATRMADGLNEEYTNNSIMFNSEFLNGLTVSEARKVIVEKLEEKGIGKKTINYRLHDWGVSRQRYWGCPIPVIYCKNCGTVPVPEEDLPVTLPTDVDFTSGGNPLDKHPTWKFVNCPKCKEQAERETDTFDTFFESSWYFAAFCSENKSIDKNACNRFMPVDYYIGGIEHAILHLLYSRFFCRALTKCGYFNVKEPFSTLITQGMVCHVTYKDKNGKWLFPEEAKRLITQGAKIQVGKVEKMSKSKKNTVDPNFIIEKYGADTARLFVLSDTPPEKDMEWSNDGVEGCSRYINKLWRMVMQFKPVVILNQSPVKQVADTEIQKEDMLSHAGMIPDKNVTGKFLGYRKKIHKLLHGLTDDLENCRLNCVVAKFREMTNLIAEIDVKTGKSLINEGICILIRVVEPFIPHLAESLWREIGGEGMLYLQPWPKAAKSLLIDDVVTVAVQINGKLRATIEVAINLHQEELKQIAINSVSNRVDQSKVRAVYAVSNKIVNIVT
Procedure: Wolbachianinfection model.
All reactions were performed in […]

[2] = biological target: Wolbachia LeuRS (residues 219 to 418) (Wolbachia sp. subsp. Brugia malayi, UniProt Q5GS31); assay: Thermal shift assay (DSF), Wolbachia LeuRS editing domain; assay type: binding; conditions: wild-type Wolbachia LeuRS construct, in the presence of AMP, vs free protein
Sequence of Wolbachia LeuRS (residues 219 to 418) (Q5GS31 219-418): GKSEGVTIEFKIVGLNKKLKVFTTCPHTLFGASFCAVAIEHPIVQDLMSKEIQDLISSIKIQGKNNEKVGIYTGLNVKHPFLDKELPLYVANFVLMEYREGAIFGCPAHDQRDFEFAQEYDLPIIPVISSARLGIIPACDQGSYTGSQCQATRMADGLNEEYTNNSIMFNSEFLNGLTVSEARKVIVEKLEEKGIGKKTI
Procedure: The thermal shift assays (TSAs) were performed using a qPCR CFX96 (Bio-Rad) with the FRET scan mode. Samples were prepared in a TSA buffer containing 50 mM Hepes (pH 7.5) and 150 mM NaCl. Each well contained 2 μl of samples as prepared for the crystallization trials, 18 μl of TSA buffer, and 20 μl of 10× SYPRO orange (S6650, Thermo Fisher Scientific).

[3] = biological target: T1, Wolbachia LeuRS (full-length); assay: biochemical
Procedure: The full-length Wolbachia LeuRS construct corresponds to residues 1 to 865 of Wolbachia sp. Brugia malayi (Uniprot Q5GS31).
The IC50 values were calculated using a similar approach as described earlier ([19], [20]). Briefly, Wolbachia full-length LeuRS, total E. coli tRNA crude extract (Roche), and compounds were preincubated for 20 min in 50 mM Hepes-KOH (pH 8.0), 30 mM MgCl2, 30 mM KCl, 0.02% (wt/vol) bovine serum albumin, and 1 mM dithiothreitol with 20 μM [^14C]leucine (306 mCi/mmol; PerkinElmer) at 30°C. Reactions were started by the addition of 4 mM ATP and, at specific times, tRNA was precipitated by the addition of 10% (w/v) trichloroacetic acid (TCA), recovered by filtration (Millipore Multiscreen; MSHAN4B50), washed with 5% TCA (w/v), and counted by a liquid scintillation counter (Wallac). […] The reactivation rates (T½) were determined by measuring the time required for Wolbachia LeuRS to recover 50% of its activity. […] LeuRS inhibitor complexes were then diluted 200-fold, and enzyme activity was determined at various time intervals, as described before. Compound reactivation rates were determined by fitting the LeuRS activity reactivation curves to a one-phase exponential decay model (GraphPad Prism).
*The half-maximum inhibitory concentrations (IC50) and half-life inhibition times (T ½) were calculated from aminoacylation assays with recombinant protein and tRNA (see methods). […]

[4] = tested on: W. pipientis (wAlbB) in C6/36 cells; assay: A·WOL anti-Wolbachia screening assay in infected C6/36 (wAlbB) insect cells; assay type: cell-based, Wolbachia pipientis; conditions: for pEC50: Wolbachia pipientis, 168 h, 7 days
From the text: To identify active compounds against Wolbachia, we carried out a high-throughput screening assay by testing a library of 202 benzoxaborole compounds in a host-cell model of Wolbachia infection ([5], [18]), which yielded an 18% hit rate. […] The screening in cells was combined with activity experiments (aminoacylation) performed with recombinant full-length Wolbachia LeuRS protein, which were used to calculate the half-maximum inhibitory concentration (IC50) for the most interesting compounds identified in the cell screening. Thus, this yielded compounds with both good anti-Wolbachian in vitro activity and in vivo efficacy, with representative compounds shown in table S1. […] Moreover, the potent in vitro activity of Cmpd9 translated in very good in cellulo efficacy (EC50 = 90 nM) in the Wolbachia infection model (Fig. 1, D and E, and table S1).
The efficacy of compounds, determined as EC50 against Wolbachia in infected host cells, was determined through the anti-Wolbachia consortium’s (A·WOL) routine screening assay as described previously ([18], [27], [29]). […] Compounds were incubated for 7 days with 2000 cells per well on a 384-well plate (CellCarrier-384 Ultra, PerkinElmer) in Leibovitz media (Life Technologies) supplemented with 20% fetal bovine serum (FBS, Thermo Fisher Scientific), 2% tryptose phosphate broth (Sigma-Aldrich), and 1% nonessential amino acids (Sigma-Aldrich). The endpoint readout utilized DNA staining of both the host cell nuclei and intracellular Wolbachia (SYTO 11) combined with a high content imaging system (Operetta, PerkinElmer) and analyzed using the associated Harmony software through a cytoplasm texture analysis. Stock solutions at 10 mM of chemical compounds were prepared in dimethyl sulfoxide (DMSO). Chemical compounds were provided by chemical manufactures (ChemPartner and Anacor Pharmaceuticals), and quality control was verified by NMR spectroscopy (^1H-NMR) and liquid chromatography coupled to mass spectrometry. […]
†The half-maximum effective concentrations (EC50) were calculated in cells infected with Wolbachia […]

[5] = ITC titration of compound into AMP in the absence of protein (adduct formation); assay type: binding; conditions: no protein
Procedure: To quantitatively assess the formation of the adenosine-based inhibitor adducts, we performed ITC experiments by titrating Cmpd9 into AMP in the absence of protein (fig. S3D). […]
spectra of AMP/ATP alone or in equimolar (5 mM) mixtures with Cmpd6. A zoomed-in view on the aromatic NMR signals of AMP/ATP is shown. Upon addition of the compounds, the NMR signals of the aromatic groups of AMP/ATP split into an additional two peaks corresponding to the two adducts formed. (C) Spontaneous cyclization of Cmpd6 with ATP/AMP leading to the formation of two diastereomer adducts based on the pseudo symmetry of the ribose. For convenience, adducts with an exo-ribose in panel c) are denote as ty pe “a”, and those with endo-ribose as adducts of type “b”. (D) Isothermal Titration Calorimetry experiment with Cmpd9 injected into AMP leading to the formation of adducts by Cmpd9.
The experiment was performed in triplicate.

Sequence of Wolbachia LeuRS (Q5GS31 219-418): as above

Row | Structure (SMILES) | -T∆S (Wolbachia LeuRS) [kcal/mol] | ∆G (Wolbachia LeuRS) [kcal/mol] | ∆H (Wolbachia LeuRS) [kcal/mol] | T ½ (half-life inhibition time, reactivation rate) [1] [min] | increase of the melting temperature ∆Tm [2] [°C] | pIC50 [3] | Wolbachia load in host cells (in words) ([4]; 9 μM for 7 days, C6/36 (wAlbB)) | pEC50 ([4]; Wolbachia infection model, C6/36 (wAlbB), read-out: in cellulo efficacy EC50) | binding to Wolbachia LeuRS (in words) (Wolbachia LeuRS) | pKd ([5]; compound titrated into AMP, one-site binding model) | pEC50 ([4]; C6/36 (wAlbB) cells, read-out: Efficacy in Infected Host EC50) | binding isotherm with AMP (in words) ([5]; compared with Cmpd9 into AMP)
1 | CCCC(N)C(=O)NC1C(O)C(CO)OC1n1cnc2c(N)ncnc21 (stereo not shown) [Nva2AA, reference compound] | 1.79 | -5.94 | -7.73 | – | – | – | – | – | – | – | – | –
2 | CN(CCCOc1ccc(Br)c2c1B(O)O[C@@H]2CN)Cc1ccccc1 [Cmpd9] | -5.31 | -11.24 | -5.93 | 226 | 13 | 6.72 | Reduction of Wolbachia load | 7.05 | did not bind | 3.00 | – | –
3 | NC[C@H]1OB(O)c2c(OCCC(=O)Nc3nccs3)ccc(Br)c21 [Cmpd6] | -4.48 | -10.08 | -5.60 | 1.1 | 13 | 7.22 | – | – | did not bind | – | < 5.00 | equivalent binding isotherm
